In ChEMBL document CHEMBL1777763, “Discovery of a nortropanol derivative as a potent and orally active GPR119 agonist for type 2 diabetes” (Bioorg Med Chem Lett, 2011):
The source made the active and inactive calls. No cut-off for these calls is given here.

Tested on: Mus musculus
Assay: Antidiabetic activity in laen mouse model assessed as reduction in blood glucose level at 10 mg/kg, po up to 60 mins by oral glucose tolerance test
Type: functional
Conditions: 1 h

| Structure (SMILES) | inhibition in vivo at 10 mg/kg |
| --- | --- |
| Cc1c(Nc2ccc(C#N)cc2Cl)ncnc1O[C@H]1CC2CC[C@@H](C1)N2S(=O)(=O)C1CC1 (single isomer, unassigned) | 30% |

Tested on: Rattus norvegicus
Assay: Antidiabetic activity in lean anesthetized rat hyperglycemic clamp model assessed as increase in insulin level at 1 mg/kg, iv relative to control
Conditions: not given

| Structure (SMILES) | Activity |
| --- | --- |
| Cc1c(Nc2ccc(C#N)cc2Cl)ncnc1O[C@H]1CC2CC[C@@H](C1)N2S(=O)(=O)C1CC1 (single isomer, unassigned) | Active |

Molecular target: Cytochrome P450 2D6 (Homo sapiens, UniProt P10635)
Assay: Inhibition of CYP2D6
Type: ADME
Conditions: not given

Sequence of Cytochrome P450 2D6 (P10635 whole entry): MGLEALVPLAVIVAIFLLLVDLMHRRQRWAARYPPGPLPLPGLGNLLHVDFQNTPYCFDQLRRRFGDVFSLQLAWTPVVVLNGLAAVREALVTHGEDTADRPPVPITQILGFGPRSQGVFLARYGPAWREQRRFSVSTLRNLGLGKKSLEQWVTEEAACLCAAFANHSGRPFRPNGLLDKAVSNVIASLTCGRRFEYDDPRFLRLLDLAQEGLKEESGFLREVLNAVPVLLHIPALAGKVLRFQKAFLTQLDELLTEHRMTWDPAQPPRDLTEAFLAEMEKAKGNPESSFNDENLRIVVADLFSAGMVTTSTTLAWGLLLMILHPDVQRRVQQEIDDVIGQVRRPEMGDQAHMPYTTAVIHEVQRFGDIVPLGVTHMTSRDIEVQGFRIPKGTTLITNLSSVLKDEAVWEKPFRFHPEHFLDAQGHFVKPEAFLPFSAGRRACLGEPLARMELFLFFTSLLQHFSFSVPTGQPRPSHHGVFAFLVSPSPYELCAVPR

| IC50 | Structure (SMILES) |
| --- | --- |
| > 20000 nM | Cc1c(Nc2ccc(C#N)cc2Cl)ncnc1O[C@H]1CC2CC[C@@H](C1)N2S(=O)(=O)C1CC1 (single isomer, unassigned) |

Tested on: Rhesus monkey
Assay: AUC (0 to 24 hrs) in monkey at 3 mg/kg, po
Type: ADME, organism-based, Macaca mulatta, Plasma
Set-up: time < 24 hr, dose 3 mg/kg, route oral
Conditions: in vivo

| AUC | Structure (SMILES) |
| --- | --- |
| 16.5 µM·h | Cc1c(Nc2ccc(C#N)cc2Cl)ncnc1O[C@H]1CC2CC[C@@H](C1)N2S(=O)(=O)C1CC1 (single isomer, unassigned) |

Tested on: not listed separately
Assay: Cmax in monkey at 3 mg/kg, po
Type: ADME, organism-based, Macaca mulatta
Set-up: dose 3 mg/kg, route oral
Conditions: rhesus monkey, in vivo

| Cmax | Structure (SMILES) |
| --- | --- |
| 997 nM | Cc1c(Nc2ccc(C#N)cc2Cl)ncnc1O[C@H]1CC2CC[C@@H](C1)N2S(=O)(=O)C1CC1 (single isomer, unassigned) |

Molecular target: T1, Glucose-dependent insulinotropic receptor (Mus musculus) (UniProt Q7TQP3)
T1 sequence (whole entry): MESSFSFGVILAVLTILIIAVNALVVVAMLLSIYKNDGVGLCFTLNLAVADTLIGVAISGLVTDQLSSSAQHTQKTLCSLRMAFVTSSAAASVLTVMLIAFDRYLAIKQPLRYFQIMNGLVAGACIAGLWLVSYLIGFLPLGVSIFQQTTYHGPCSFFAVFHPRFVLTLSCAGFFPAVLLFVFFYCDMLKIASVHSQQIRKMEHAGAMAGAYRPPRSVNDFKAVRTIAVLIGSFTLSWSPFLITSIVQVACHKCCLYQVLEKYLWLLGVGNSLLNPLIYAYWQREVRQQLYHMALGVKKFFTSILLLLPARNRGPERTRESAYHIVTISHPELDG
Assay: Agonist activity at mouse GPR119 expressed in HEK293 cells assessed as maximal stimulation of cMAP level by cell-based cAMP assay relative to 21
Type: functional
Conditions: not given

| Structure (SMILES) | Activity |
| --- | --- |
| CC(C)OC(=O)N1CCC(Oc2cc(Oc3ccc(S(C)(=O)=O)cc3F)ncn2)CC1 | 100% |
| Cc1ncccc1Oc1ncnc(O[C@H]2C[C@H]3CC[C@@H](C2)N3C(=O)OC(C)C2CC2)c1C (some centres not stated) | 31% |
| Cc1c(Nc2ccc(C#N)cc2Cl)ncnc1O[C@H]1CC2CC[C@@H](C1)N2S(=O)(=O)C1CC1 (single isomer, unassigned) | 110% |

The next lines start with the values.

| Activity | Structure (SMILES) |
| --- | --- |
| 74% | Cc1ncccc1Oc1ncnc(O[C@H]2C[C@@H]3CC(F)[C@@H](C2)N3S(=O)(=O)C2CC2)c1C (some centres not stated) |
| 52% | Cc1ncccc1Oc1ncnc(O[C@H]2C[C@@H]3CC(F)(F)[C@@H](C2)N3S(=O)(=O)C2CC2)c1C |
| 29% | CCCCS(=O)(=O)N1C2CC[C@H]1C[C@@H](Oc1ncnc(Oc3cccnc3C)c1C)C2 (single isomer, unassigned) |
| 20% | Cc1ncccc1Oc1ncnc(O[C@H]2CC3CC[C@@H](C2)N3C(=O)OC(C)C)c1C (single isomer, unassigned) |

Tested on: not listed separately
Assay: Plasma concentration in lean mouse at 30 mg/kg, po after 60 mins
Type: ADME, organism-based
Set-up: dose 30 mg/kg, route oral
Conditions: not given

| concentration at 1 h | Structure (SMILES) |
| --- | --- |
| 12700 nM | CC(C)OC(=O)N1CCC(Oc2cc(Oc3ccc(S(C)(=O)=O)cc3F)ncn2)CC1 |
| 1400 nM | Cc1c(Nc2ccc(C#N)cc2Cl)ncnc1O[C@H]1CC2CC[C@@H](C1)N2S(=O)(=O)C1CC1 (single isomer, unassigned) |

Tested on: Mus musculus
Assay: Antidiabetic activity in laen mouse model assessed as reduction in blood glucose level at 3 mg/kg, po up to 60 mins by oral glucose tolerance test
Type: functional
Conditions: 1 h

| Structure (SMILES) | inhibition in vivo at 3 mg/kg |
| --- | --- |
| Cc1c(Nc2ccc(C#N)cc2Cl)ncnc1O[C@H]1CC2CC[C@@H](C1)N2S(=O)(=O)C1CC1 (single isomer, unassigned) | 28% |

Molecular target: Cytochrome P450 3A4 (Homo sapiens, UniProt P08684)
Assay: Inhibition of CYP3A4
Type: ADME
Conditions: not given

Sequence of Cytochrome P450 3A4 (P08684 whole entry): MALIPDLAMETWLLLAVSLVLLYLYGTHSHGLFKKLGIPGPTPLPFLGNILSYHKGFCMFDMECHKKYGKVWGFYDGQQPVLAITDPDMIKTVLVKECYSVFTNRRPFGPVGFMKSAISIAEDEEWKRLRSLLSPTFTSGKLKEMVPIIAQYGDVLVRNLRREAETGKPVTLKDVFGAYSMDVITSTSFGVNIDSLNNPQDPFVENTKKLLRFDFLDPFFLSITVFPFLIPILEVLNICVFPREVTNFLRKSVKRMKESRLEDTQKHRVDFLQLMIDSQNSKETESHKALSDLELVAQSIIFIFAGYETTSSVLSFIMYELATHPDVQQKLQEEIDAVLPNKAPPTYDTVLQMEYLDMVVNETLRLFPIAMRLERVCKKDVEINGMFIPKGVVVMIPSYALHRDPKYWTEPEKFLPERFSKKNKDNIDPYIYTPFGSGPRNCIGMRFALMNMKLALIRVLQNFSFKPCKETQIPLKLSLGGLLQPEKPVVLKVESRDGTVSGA

| IC50 | Structure (SMILES) |
| --- | --- |
| > 20000 nM | Cc1c(Nc2ccc(C#N)cc2Cl)ncnc1O[C@H]1CC2CC[C@@H](C1)N2S(=O)(=O)C1CC1 (single isomer, unassigned) |

Tested on: not listed separately
Assay: Tmax in monkey at 3 mg/kg, po
Type: ADME, organism-based, Macaca mulatta
Set-up: dose 3 mg/kg, route oral
Conditions: rhesus monkey, in vivo

| Tmax | Structure (SMILES) |
| --- | --- |
| 4.5 h | Cc1c(Nc2ccc(C#N)cc2Cl)ncnc1O[C@H]1CC2CC[C@@H](C1)N2S(=O)(=O)C1CC1 (single isomer, unassigned) |

Tested on: Mus musculus
Assay: Antidiabetic activity in laen mouse model assessed as reduction in blood glucose level at 30 mg/kg, po up to 60 mins by oral glucose tolerance test
Type: functional
Conditions: 1 h

| Structure (SMILES) | inhibition in vivo at 30 mg/kg |
| --- | --- |
| CC(C)OC(=O)N1CCC(Oc2cc(Oc3ccc(S(C)(=O)=O)cc3F)ncn2)CC1 | 47% |
| Cc1c(Nc2ccc(C#N)cc2Cl)ncnc1O[C@H]1CC2CC[C@@H](C1)N2S(=O)(=O)C1CC1 (single isomer, unassigned) | 39% |

Tested on: Mus musculus
Assay: Antidiabetic activity in overnight fasted mouse model assessed as blood glucose level at 3 mg/kg, po followed by 30 mins after administered 3 g/kg, po glucose by oral glucose tolerance test (reference value: 100 %)
Type: functional
Conditions: not given

| Structure (SMILES) | Blood glucose (% of vehicle) |
| --- | --- |
| CC(C)OC(=O)N1CCC(Oc2cc(Oc3ccc(S(C)(=O)=O)cc3F)ncn2)CC1 | 78% |
| Cc1ncccc1Oc1ncnc(O[C@H]2CC3CC[C@@H](C2)N3C(=O)OC(C)C)c1C (single isomer, unassigned) | 100% |
| Cc1c(Nc2ccc(C#N)cc2Cl)ncnc1O[C@H]1CC2CC[C@@H](C1)N2S(=O)(=O)C1CC1 (single isomer, unassigned) | 91% |

Tested on: Rattus norvegicus
Assay: AUC (0 to 6 hrs) in rat at 10 mg/kg, po
Type: ADME, organism-based, Plasma
Set-up: time < 6 hr, dose 10 mg/kg, route oral
Conditions: in vivo

| AUC | Structure (SMILES) |
| --- | --- |
| 20.7 µM·h | CC(C)OC(=O)N1CCC(Oc2cc(Oc3ccc(S(C)(=O)=O)cc3F)ncn2)CC1 |
| 0.175 µM·h | Cc1ncccc1Oc1ncnc(O[C@H]2CC3CC[C@@H](C2)N3C(=O)OC(C)C)c1C (single isomer, unassigned) |
| 2.17 µM·h | Cc1c(Nc2ccc(C#N)cc2Cl)ncnc1O[C@H]1CC2CC[C@@H](C1)N2S(=O)(=O)C1CC1 (single isomer, unassigned) |

Molecular target: T2, PXR (NR1I2) (Homo sapiens, UniProt O75469)
T2 sequence (O75469 whole entry): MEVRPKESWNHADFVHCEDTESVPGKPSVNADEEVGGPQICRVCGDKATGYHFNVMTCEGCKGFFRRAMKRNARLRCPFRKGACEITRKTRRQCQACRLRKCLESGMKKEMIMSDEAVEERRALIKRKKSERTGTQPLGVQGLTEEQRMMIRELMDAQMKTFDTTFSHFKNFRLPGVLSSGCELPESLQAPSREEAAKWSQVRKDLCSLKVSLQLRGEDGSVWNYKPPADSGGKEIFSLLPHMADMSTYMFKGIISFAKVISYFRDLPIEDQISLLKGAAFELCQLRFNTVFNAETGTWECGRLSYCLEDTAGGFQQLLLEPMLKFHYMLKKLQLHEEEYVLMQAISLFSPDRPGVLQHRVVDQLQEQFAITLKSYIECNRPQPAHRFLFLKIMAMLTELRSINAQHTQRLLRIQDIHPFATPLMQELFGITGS
Assay: Inhibition of human PXR transfected in HepG2 cells at 10 uM
Type: cell-based
Conditions: HepG2 cells transfected with human PXR

| inhibition at 10 µM | Structure (SMILES) |
| --- | --- |
| 0.09% | Cc1c(Nc2ccc(C#N)cc2Cl)ncnc1O[C@H]1CC2CC[C@@H](C1)N2S(=O)(=O)C1CC1 (single isomer, unassigned) |

Tested on: not listed separately
Assay: Plasma concentration in lean mouse at 10 mg/kg, po after 60 mins
Type: ADME, organism-based
Set-up: dose 10 mg/kg, route oral
Conditions: not given

| concentration at 1 h | Structure (SMILES) |
| --- | --- |
| 800 nM | Cc1c(Nc2ccc(C#N)cc2Cl)ncnc1O[C@H]1CC2CC[C@@H](C1)N2S(=O)(=O)C1CC1 (single isomer, unassigned) |

Tested on: Salmonella typhimurium
Assay: Genotoxicity in Salmonella Typhimurium by Ames test
Type: toxicity, organism-based
Conditions: salmonella enterica subsp. enterica serovar typhimurium

| Structure (SMILES) | Activity |
| --- | --- |
| Cc1c(Nc2ccc(C#N)cc2Cl)ncnc1O[C@H]1CC2CC[C@@H](C1)N2S(=O)(=O)C1CC1 (single isomer, unassigned) | Non-toxic |

Molecular target: hERG (KCNH2) (Homo sapiens, UniProt Q12809)
Assay: Inhibition of human ERG at 10 uM
Conditions: not given

Sequence of hERG (KCNH2) (Q12809 whole entry): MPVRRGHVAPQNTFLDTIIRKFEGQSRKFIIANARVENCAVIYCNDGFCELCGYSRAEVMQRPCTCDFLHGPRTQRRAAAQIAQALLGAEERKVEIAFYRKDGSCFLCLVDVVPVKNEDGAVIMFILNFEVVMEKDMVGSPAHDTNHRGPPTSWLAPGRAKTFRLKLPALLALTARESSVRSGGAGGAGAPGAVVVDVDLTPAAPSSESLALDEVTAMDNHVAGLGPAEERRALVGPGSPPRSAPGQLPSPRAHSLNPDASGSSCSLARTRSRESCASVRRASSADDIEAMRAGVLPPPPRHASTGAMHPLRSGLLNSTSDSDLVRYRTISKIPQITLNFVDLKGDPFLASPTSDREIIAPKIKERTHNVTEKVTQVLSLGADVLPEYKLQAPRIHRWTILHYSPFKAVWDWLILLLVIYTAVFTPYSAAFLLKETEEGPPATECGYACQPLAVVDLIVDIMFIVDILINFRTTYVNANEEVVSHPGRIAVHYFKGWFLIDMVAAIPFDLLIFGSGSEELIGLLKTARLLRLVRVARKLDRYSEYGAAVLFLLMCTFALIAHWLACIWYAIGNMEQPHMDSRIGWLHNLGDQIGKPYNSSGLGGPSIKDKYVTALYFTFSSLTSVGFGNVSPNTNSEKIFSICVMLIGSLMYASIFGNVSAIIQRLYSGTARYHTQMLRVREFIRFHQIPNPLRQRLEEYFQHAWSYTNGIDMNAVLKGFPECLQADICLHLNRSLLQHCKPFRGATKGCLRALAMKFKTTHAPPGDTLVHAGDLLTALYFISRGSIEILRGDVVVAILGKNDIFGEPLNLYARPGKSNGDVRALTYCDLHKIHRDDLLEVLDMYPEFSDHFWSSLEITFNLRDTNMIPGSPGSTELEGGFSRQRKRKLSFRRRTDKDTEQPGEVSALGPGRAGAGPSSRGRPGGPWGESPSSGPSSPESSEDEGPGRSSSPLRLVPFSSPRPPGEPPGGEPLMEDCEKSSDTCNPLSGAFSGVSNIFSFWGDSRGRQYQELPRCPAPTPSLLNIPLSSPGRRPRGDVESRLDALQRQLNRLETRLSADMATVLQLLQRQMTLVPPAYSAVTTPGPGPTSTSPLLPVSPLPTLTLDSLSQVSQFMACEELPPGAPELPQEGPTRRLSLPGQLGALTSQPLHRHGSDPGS

| Structure (SMILES) | inhibition at 10 µM |
| --- | --- |
| Cc1c(Nc2ccc(C#N)cc2Cl)ncnc1O[C@H]1CC2CC[C@@H](C1)N2S(=O)(=O)C1CC1 (single isomer, unassigned) | 9% |

Molecular target: Cytochrome P450 2C9 (Homo sapiens, UniProt P11712)
Assay: Inhibition of CYP2C9
Type: ADME
Conditions: not given

Sequence of Cytochrome P450 2C9 (P11712 whole entry): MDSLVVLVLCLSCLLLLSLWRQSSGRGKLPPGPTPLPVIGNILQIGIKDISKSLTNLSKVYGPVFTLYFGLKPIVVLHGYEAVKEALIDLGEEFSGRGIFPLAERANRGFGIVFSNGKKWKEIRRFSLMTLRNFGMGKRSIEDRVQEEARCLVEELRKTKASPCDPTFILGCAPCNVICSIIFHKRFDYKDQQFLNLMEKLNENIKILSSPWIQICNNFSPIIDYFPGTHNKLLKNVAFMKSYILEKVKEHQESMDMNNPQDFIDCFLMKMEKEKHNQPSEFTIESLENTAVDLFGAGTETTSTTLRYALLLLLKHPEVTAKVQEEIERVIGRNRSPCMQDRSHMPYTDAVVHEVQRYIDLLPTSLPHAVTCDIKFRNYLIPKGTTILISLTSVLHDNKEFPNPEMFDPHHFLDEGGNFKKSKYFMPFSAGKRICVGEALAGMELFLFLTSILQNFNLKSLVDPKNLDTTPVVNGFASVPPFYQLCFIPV

| IC50 | Structure (SMILES) |
| --- | --- |
| > 20000 nM | Cc1c(Nc2ccc(C#N)cc2Cl)ncnc1O[C@H]1CC2CC[C@@H](C1)N2S(=O)(=O)C1CC1 (single isomer, unassigned) |

Molecular target: Probable G-protein coupled receptor 160 (Homo sapiens) (UniProt Q9UJ42)
Assay: Inhibition of GPCR-1 at 10 uM
Conditions: not given

Sequence of Probable G-protein coupled receptor 160 (Homo sapiens) (Q9UJ42 whole entry): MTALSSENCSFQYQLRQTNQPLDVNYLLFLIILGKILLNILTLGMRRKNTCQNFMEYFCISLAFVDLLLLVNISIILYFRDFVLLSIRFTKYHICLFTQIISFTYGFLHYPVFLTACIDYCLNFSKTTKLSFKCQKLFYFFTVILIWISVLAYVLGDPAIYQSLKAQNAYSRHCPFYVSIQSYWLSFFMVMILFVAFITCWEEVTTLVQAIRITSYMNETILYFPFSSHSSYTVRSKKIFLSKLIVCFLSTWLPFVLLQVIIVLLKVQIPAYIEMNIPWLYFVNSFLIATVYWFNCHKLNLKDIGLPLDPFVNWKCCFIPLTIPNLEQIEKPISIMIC

| inhibition | Structure (SMILES) |
| --- | --- |
| < 30% | Cc1c(Nc2ccc(C#N)cc2Cl)ncnc1O[C@H]1CC2CC[C@@H](C1)N2S(=O)(=O)C1CC1 (single isomer, unassigned) |

Tested on: not listed separately
Assay: Plasma concentration in mouse at 3 mg/kg, po after 1 hr
Type: ADME, organism-based
Set-up: dose 3 mg/kg, route oral
Conditions: not given

| concentration at 1 h | Structure (SMILES) |
| --- | --- |
| 480 nM | CC(C)OC(=O)N1CCC(Oc2cc(Oc3ccc(S(C)(=O)=O)cc3F)ncn2)CC1 |
| 193 nM | Cc1ncccc1Oc1ncnc(O[C@H]2CC3CC[C@@H](C2)N3C(=O)OC(C)C)c1C (single isomer, unassigned) |
| 275 nM | Cc1c(Nc2ccc(C#N)cc2Cl)ncnc1O[C@H]1CC2CC[C@@H](C1)N2S(=O)(=O)C1CC1 (single isomer, unassigned) |

Tested on: not listed separately
Assay: Plasma concentration in lean mouse at 3 mg/kg, po after 60 mins
Type: ADME, organism-based
Set-up: dose 3 mg/kg, route oral
Conditions: not given

| concentration at 1 h | Structure (SMILES) |
| --- | --- |
| 400 nM | Cc1c(Nc2ccc(C#N)cc2Cl)ncnc1O[C@H]1CC2CC[C@@H](C1)N2S(=O)(=O)C1CC1 (single isomer, unassigned) |

Molecular target: T3, Glucose-dependent insulinotropic receptor (Mus musculus, UniProt Q7TQP3)
T3 sequence (Q7TQP3 whole entry): T1 sequence (whole entry)
Assay: Agonist activity at mouse GPR119 expressed in HEK293 cells assessed as stimulation of cMAP level by cell-based cAMP assay
Type: functional
Conditions: not given

| Structure (SMILES) | EC50 |
| --- | --- |
| CC(C)OC(=O)N1CCC(Oc2cc(Oc3ccc(S(C)(=O)=O)cc3F)ncn2)CC1 | 403 nM |
| Cc1ncccc1Oc1ncnc(O[C@H]2C[C@H]3CC[C@@H](C2)N3C(=O)OC(C)C2CC2)c1C (some centres not stated) | 59 nM |
| Cc1c(Nc2ccc(C#N)cc2Cl)ncnc1O[C@H]1CC2CC[C@@H](C1)N2S(=O)(=O)C1CC1 (single isomer, unassigned) | 140 nM |

Second part, the compound after the results:

| EC50 | Structure (SMILES) |
| --- | --- |
| 710 nM | Cc1ncccc1Oc1ncnc(O[C@H]2C[C@@H]3CC(F)[C@@H](C2)N3S(=O)(=O)C2CC2)c1C (some centres not stated) |
| 220 nM | Cc1ncccc1Oc1ncnc(O[C@H]2C[C@@H]3CC(F)(F)[C@@H](C2)N3S(=O)(=O)C2CC2)c1C |
| 26 nM | CCCCS(=O)(=O)N1C2CC[C@H]1C[C@@H](Oc1ncnc(Oc3cccnc3C)c1C)C2 (single isomer, unassigned) |
| 55 nM | Cc1ncccc1Oc1ncnc(O[C@H]2CC3CC[C@@H](C2)N3C(=O)OC(C)C)c1C (single isomer, unassigned) |
